Test results: patent publication US8735620B2, “Processes for preparing (E)-styrylbenzylsulfone compounds and uses thereof for treating proliferative disorders” (priority 2008, dated 2014)
pIC50: −log10 of the molar value. Where two headings read alike, the source gives them in different places.

Columns and labels:
U87 = experiment: Tumor cell killing, U87; format: cell-based, human; conditions: U87, GLIOBLASTOMA; read-out: Tumor cell killing (IC50) concentration
Description: (§1) Tissue Culture and Reagents: Paclitaxel was purchased from Sigma. Cell lines were purchased from ATCC. Cell lines were routinely grown in DMEM or RPM1 (CellGro) supplemented with 10% fetal bovine serum (Atlas) and 1 unit/mL penicillin-streptomycin (Gibco).

RF48 = experiment: Tumor cell killing, RF48; format: cell-based, human; conditions: RF48, GASTRIC; read-out: Tumor cell killing (IC50) concentration
Description: as §1

A549 = experiment: Tumor cell killing, A549; format: cell-based, human; conditions: A549, NSCLC; read-out: Tumor cell killing (IC50) concentration
Description: as §1

H187 = experiment: Tumor cell killing, H187; format: cell-based, human; conditions: H187, SCLC; read-out: Tumor cell killing (IC50) concentration
Description: as §1

[1] = system: panel of 60 human cancer cell-lines; experiment: NCI Developmental Therapeutics Program panel of 60 human cancer cell-lines; format: cell-based; conditions: at nanomolar concentrations, including drug-resistant cell-lines
PC-3 = experiment: Tumor cell killing, PC-3; format: cell-based, human; conditions: PC-3, PROSTATE (AR+); read-out: Tumor cell killing (IC50) concentration
Description: as §1

MOLT-4 = experiment: Tumor cell killing, MOLT-4; format: cell-based, human; conditions: MOLT-4, T-lymphoblastic: ALL; read-out: Tumor cell killing (IC50) concentration
[2] = system: BT20, DU145, H157 and DLD1 cell lines; experiment: In vitro cytotoxicity, four human tumor cell lines (SAR discussion); format: cell-based
Experimental: A number of tumor cell lines were tested using a dose response end point assay system. The cells were grown in either DMEM or RPMI supplemented with 10% fetal bovine serum and 1 unit/mL Penicillin-Streptomycin solution. The tumor cells were plated into 6 well dishes at a cell density of 1.0×10^5 cells/mL/well and compounds were added 24 h later at various concentrations. Cell counts were determined from duplicate wells after 96 h of treatment. The total number of viable cells was determined by trypan blue exclusion.
Following the synthesis of this group of compounds, their in vitro cytotoxicity was assessed using four different human tumor cell lines derived from human breast (BT20), prostate (DU145), lung (H157) and colorectal (DLD1) cancers. […] In a majority of the compounds described here, a methoxy group was kept constant at the 4th position on the aromatic ring of the benzyl moiety.

CEM = experiment: Tumor cell killing, CEM; format: cell-based, human; conditions: read-out: Tumor cell killing (IC50) concentration
[3] = system: DLD1 (human colorectal tumor cell line); experiment: Cytotoxicity assay (trypan blue exclusion, 96 h), DLD1; format: cell-based
Description: as §1

[4] = system: DU145 (human prostate tumor cell line); experiment: Cytotoxicity assay (trypan blue exclusion, 96 h), DU145; format: cell-based
Description: as §1

N417 = experiment: Tumor cell killing, N417; format: cell-based, human; conditions: N417, SCLC; read-out: Tumor cell killing (IC50) concentration
Description: as §1

MIA-PaCa2 = experiment: Tumor cell killing, MIA-PaCa2; format: cell-based, human; conditions: MIA-PaCa2, PANCREATIC; read-out: Tumor cell killing (IC50) concentration
Description: as §1

MCF-7 = experiment: Tumor cell killing, MCF-7; format: cell-based, human; conditions: MCF-7, BREAST (ER+); read-out: Tumor cell killing (IC50) concentration
Description: as §1

CEM/C2 = experiment: Tumor cell killing, CEM/C2 (camptothecin-resistant subline); format: cell-based, human; conditions: *CEM/C2, RESISTANT LEUKEMIC (multi-drug resistant); read-out: Tumor cell killing (IC50) concentration
OV-CAR-3 = experiment: Tumor cell killing, OV-CAR-3; format: cell-based, human; conditions: OV-CAR-3, OVARIAN; read-out: Tumor cell killing (IC50) concentration
Description: as §1

SK-MEL-28 = experiment: Tumor cell killing, SK-MEL-28; format: cell-based, human; conditions: SK-MEL-28, MELANOMA; read-out: Tumor cell killing (IC50) concentration
Description: as §1

MES-SA = experiment: Tumor cell killing, MES-SA (parental uterine sarcoma); format: cell-based, human; conditions: MES-SA, SARCOMA; read-out: Tumor cell killing (IC50) concentration
Experimental: A. 6aa inhibits the growth of parental (MES-SA) and Paclitaxel resistant (MES-SA/DX5) cell lines with equal efficiency. The parental uterine sarcoma cells and the MDR positive (MES-SA/DX5) cells were plated into 6 well dishes and treated with various concentrations of 6aa and Paclitaxel for 96 h. The number of viable cells from duplicate plates was determined by trypan blue exclusion. B. Soft Agar Assays. MIA-PaCa-2 cells (1.0×10^5) were plated in soft agar containing various concentrations of each compound in triplicates. After three weeks of growth, the plates were stained for 48 h using 0.05% nitroblue tetrazolium solution. Representative plates were photographed using an Olympus stereoscope mounted with a Sony digital camera system (DKC5000, Sony Inc). Tissue Culture and Reagents: […] Cell lines were purchased from ATCC. Cell lines were routinely grown in DMEM or RPM1 (CellGro) supplemented with 10% fetal bovine serum (Atlas) and 1 unit/mL penicillin-streptomycin (Gibco). A number of tumor cell lines were tested using a dose response end point assay system. The cells were grown in either DMEM or RPMI supplemented with 10% fetal bovine serum and 1 unit/mL Penicillin-Streptomycin solution. […] Cell counts were determined from duplicate wells after 96 h of treatment. The total number of viable cells was determined by trypan blue exclusion.

[5] = system: BT20 (human breast tumor cell line); experiment: Cytotoxicity assay (trypan blue exclusion, 96 h), BT20; format: cell-based; conditions: BT20, 96 h treatment
Description: as §1

T47D = experiment: Tumor cell killing, T47D; format: cell-based, human; conditions: BREAST (ER+), read-out: Tumor cell killing (IC50) concentration
Description: as §1

COLO-205 = experiment: Tumor cell killing, COLO-205; format: cell-based, human; conditions: COLO-205, COLO-RECTAL; read-out: Tumor cell killing (IC50) concentration
Description: as §1

AGS = experiment: Tumor cell killing, AGS; format: cell-based, human; conditions: GASTRIC, read-out: Tumor cell killing (IC50) concentration
Description: as §1

Namalwa = experiment: Tumor cell killing, Namalwa; format: cell-based, human; conditions: Burkitt's Lymphoma (B-cell), read-out: Tumor cell killing (IC50) concentration
Raji = experiment: Tumor cell killing, Raji; format: cell-based, human; conditions: Burkitt's Lymphoma (B-cell), read-out: Tumor cell killing (IC50) concentration
HCT-15 = experiment: Tumor cell killing, HCT-15; format: cell-based, human; conditions: HCT-15, COLO-RECTAL; read-out: Tumor cell killing (IC50) concentration
Description: as §1

[6] = LEUKEMIC (second listing, r39, parental of CEM/C2)
[7] = DLD1, 96 h treatment, read-out: DLD1 IC50
[8] = DLD-1, COLO-RECTAL, Table 2, read-out: Tumor cell killing (IC50) concentration
[9] = DU145, 96 h treatment, read-out: DU145 IC50
[10] = DU145, PROSTATE (AR−), Table 2, read-out: Tumor cell killing (IC50) concentration

| Compound | pIC50 (U87) | pIC50 (RF48) | pIC50 (A549) | pIC50 (H187) | growth inhibition of NCI 60 cell-line panel [1] | pIC50 (PC-3) | pIC50 (MOLT-4) | pIC50 (CEM; LEUKEMIC (first listing, r26)) | pIC50 (CEM; [6]) | pIC50 [3, 7] | pIC50 [3, 8] | pIC50 [4, 9] | pIC50 [4, 10] | pIC50 (N417) | pIC50 (MIA-PaCa2) | pIC50 (MCF-7) | pIC50 (CEM/C2) | pIC50 (OV-CAR-3) | pIC50 (SK-MEL-28) | pIC50 (MES-SA) | further results |
| --- | --- | --- | --- | --- | --- | --- | --- | --- | --- | --- | --- | --- | --- | --- | --- | --- | --- | --- | --- | --- | --- |
| COc1cc(OC)c(/C=C/S(=O)(=O)Cc2ccc(OC)c(O)c2)c(OC)c1 [6aa, (E)-2,4,6-Trimethoxystyryl-3-Hydroxy-4-Methoxybenzyl Sulfone] | 8.15 | 8.30 | 8.00 | 8.15 | inhibited the growth of all of the tested cell lines | 8.10 | 8.30 | 8.05 | 8.00 | 8.52 | 8.10 | 8.52 | 8.15 | 8.30 | 8.40 | 8.40 | 8.00 | 8.22 | 8.15 | 8.22 | cytotoxic activity, SAR statement ([2]; four human tumor cell lines): best activity in the entire series; fold more active than 6s ([2]; in all four cell lines): 8 to 10 fold; pIC50 [5]: 8.00; pIC50 (T47D): 8.22; pIC50 (COLO-205): 8.05; pIC50 (AGS): 8.15; pIC50 (Namalwa): 8.22; pIC50 (Raji): 8.40; pIC50 (HCT-15): 8.10 |
| COc1ccc(CS(=O)(=O)/C=C/c2c(OC)cc(OC)cc2OC)cc1 [6s, (E)-2,4,6-Trimethoxystyryl-4-Methoxybenzyl sulfone] | 7.40 | 8.00 | 7.70 | 7.82 | inhibited the growth of all of the tested cell lines | 7.52 | 8.05 | 7.52 | 7.52 | 7.40 | 7.40 | 7.60 | 7.60 | 8.10 | 8.10 | 8.52 | 8.00 | 8.10 | 7.40 | 8.00 | fold more active than 6m ([2]; cell-killing assays): 20 fold; pIC50 [5]: 7.70; pIC50 (T47D): 7.60; pIC50 (COLO-205): 7.82; pIC50 (AGS): 7.70; pIC50 (Namalwa): 7.82; pIC50 (Raji): 8.05; pIC50 (HCT-15): 7.70 |
